ChEMBL document CHEMBL4739717, “Methods of treating cartilage disorders through inhibition of clk and dyrk” (2020)

Assays:
[1] = Effect on Wnt signaling pathway in human SW480 cells harbouring TCF/LEF luciferase reporter gene and SP5-Luc reporter gene incubated for 36 to 48 hrs by luminescence assay; format: cell-based
[2] = target: Dual specificity tyrosine-phosphorylation-regulated kinase 1A (Homo sapiens, UniProt Q13627); assay: Inhibition of recombinant DYRK1A (unknown origin) using Ser/Thr 18 peptide as substrate incubated for 1 hr in presence of ATP by FRET assay
[3] = Inhibition of IL1-beta induced MMP3 expression levels in human chondrocytes assessed as MMP3 levels incubated for 2hrs followed by IL1-beta stimulation and measured after overnight incubation by LANCE assay; format: functional, cell-based; conditions: Chondrocyte

SMILES	EC50 [1] [nM]	EC50 [2] [nM]	EC50 [3] [nM]
COc1ccc(NC(=O)c2n[nH]c3ccc(-c4cncc(CO)c4)cc23)cn1	96.6	1	3000
CN1CCC(n2cc(C(=O)Nc3ncc4ccc(-c5cncc6[nH]ccc56)cc4n3)cn2)CC1	1400		3000
COc1cncc(C(=O)Nc2c[nH]nc2C(=O)Nc2ccc3c(c2)CCN(C)C3)c1	558	8	3000
CN1CCN(c2cc(C(=O)Nc3cc4cc(-c5ccc(N)nc5)ccc4cn3)ccn2)CC1	710		798
O=C(Nc1ccc(OC(CO)CO)nc1)c1n[nH]c2ccc(-c3cncc(CN4CCCCC4)c3)cc12	500	4	303
CC(C)OC(=O)N1CCC(n2cc(C(=O)Nc3cc4cc(-c5cnn(C)c5)ncc4cn3)cn2)CC1	824		154
Cn1cc(-c2ccc3cnc(NC(=O)c4ccc5nccnc5c4)cc3n2)cn1	447		3000
CN1CCN(c2cc(C(=O)Nc3cc4nc(-c5cnn(C)c5)ccc4cn3)ccn2)CC1	102		3000
CC(C)OC(=O)N1CCC(n2cc(C(=O)Nc3cc4cc(-c5cnn(C)c5)ccc4cn3)cn2)CC1	54.5		88.1
CN1CC=C(c2cc(C(=O)Nc3cc4cc(-c5cncc(NC(C)(C)C)n5)cnc4cn3)ccn2)CC1	357		3000
CN1CCN(c2cc(C(=O)Nc3ncc4ccc(-c5cnn(C)c5)cc4n3)ccn2)CC1	468		417
O=C(Nc1cc2cc(-c3cncc(NC4CCNCC4)n3)ccc2cn1)C1CCCCC1	319		3000
O=C(NCc1cc(F)cc(F)c1)c1n[nH]c2ccc(-c3cncc(CN4CCCCC4)c3)cc12	1820		3000
CN1CCC2(CC1)CN(c1cc(C(=O)Nc3cc4cc(-c5cnn(C)c5CN5CCCCC5)cnc4cn3)ccn1)C2	607		3000
Cc1n[nH]c2ccc(-c3cncc(OCCN)c3)cc12	1640		3000
CC(C)n1cc(C(=O)Nc2cc3cc(-c4cncn4C(C)C)ccc3cn2)cn1	115		4.6
CN1CCC(n2cc(C(=O)Nc3cc4cc(-c5cnc6cc[nH]c6c5)ccc4cn3)cn2)CC1	26.8		3000
CN1CCC2(CC1)CN(c1cc(C(=O)Nc3cc4cc(-c5cnn(C)c5CO)ccc4cn3)ccn1)C2			3000
CC(C)Nc1cncc(-c2ccc3cnc(NC(=O)c4cccc(C5CCN(C)CC5)c4)cc3c2)n1	132		3000
CN1CCN(c2cc(C(=O)Nc3cc4cc(-c5cnn(C)c5)c(F)cc4cn3)ccn2)CC1			0.4
Cn1cc(-c2ccc3cnc(NC(=O)c4ccc5c(c4)CNCC5)cc3c2)cn1			1630

The remaining compounds from weak to strong by EC50 [3], led by results:

EC50 [1] [nM]	EC50 [2] [nM]	EC50 [3] [nM]	SMILES
262		3000	Cc1n[nH]c2ccc(-c3cncc(OC[C@@H](N)Cc4ccccc4)c3)cc12
		3000	Cn1cc(-c2ccc3cnc(NC(=O)c4ccc5cnccc5c4)cc3c2)cn1
2400	1	2740	CC(C)NC(=O)c1n[nH]c2ccc(-c3cncc(NC4CCNCC4)n3)cc12
119		897	O=C(Nc1cc2cc(-c3cncc(NCC4(F)CNC4)n3)ccc2cn1)C1CC1
1310		307	O=C(Nc1ccc(CN2CCCC2)cc1)c1n[nH]c2ccc(-c3cncnc3)cc12
1890		71.5	Cc1nnc(C(=O)Nc2cc3cc(-c4cncn4C)ccc3cn2)s1
3640		46.6	O=C(Nc1cc2cc(-c3cncc(NC4CCNCC4)n3)ncc2cn1)C1CCOCC1
1150	1	12.6	CN1CCC(Oc2ncc(NC(=O)c3n[nH]c4cc(F)c(-c5cnn(C)c5)cc34)cc2F)CC1
107		8.7	Cc1ncc(C(=O)Nc2cc3nc(-c4cnc(C)n4C)ccc3cn2)s1
1960		2.3	NC(=O)c1n[nH]c2ccc(-c3cncc(CN4CCCCC4)c3)cc12
